Data set [1] deals with T1, α-Glucosidase (EC 3.2.1.20) from Saccharomyces cerevisiae (Baker's yeast) (Saccharomyces cerevisiae, UniProt P53341).
T1 construct: purchased Sigma-Aldrich (St. Louis, MO)
As to the kind of experiment: biochemical. The method, then: (§1) 1 D and 2 D NMR spectra were recorded on a Bruker 400 AVANCE spectrometer, and the chemical shifts were reported in parts per million (ppm) using tetramethylsilane (TMS) as the internal standard. Melting points were determined on a Fisher-Johns Melting Point apparatus. Adsorbents such as silica gel 60 (Merck) were used for column and radial (chromatotron model 7924 T, Harrison Research) chromatographies. Merck silica gel 60F254 plates were used for TLC. HRESIMS spectra were obtained using a Bruker MICROTOF model mass spectrometer. UV-visible absorption spectra were recorded using a UV-2550 (SHIMADZU) UV-Vis spectrometer (Shimadzu, Kyoto, Japan). α-Glucosidase (EC 3.2.1.20) from Saccharomyces cerevisiae and 4-nitrophenyl-α-D-glucopyranoside (p-NPG) were obtained from Sigma-Aldrich (St. Louis, MO). […] Rat intestinal acetone powder was supplied by Sigma Aldrich.
The evaluation of the inhibitory activity of all compounds against yeast and rat intestinal (maltase and sucrase) α-glucosidases was applied from a previous procedure (Damsud et al. [2013]). The inhibitory effect against yeast α-glucosidase was determined using the protocol previously described. Briefly, 10 μL of sample was mixed with α-glucosidase (0.1 U/mL) in 1 mM phosphate buffer (pH 6.9) and incubated at 37 °C for 10 min. The reaction mixture was added with 1 mM p-nitrophenyl-α-D-glucopyranoside (PNPG, 50 μL) followed by additional 20 min incubation. p-Nitrophenoxide liberated from the reaction was quantified by a microplate reader (UV 405 nm) after the addition of 1 M Na2CO3 (100 μL). The percent inhibition was deduced using the following equation. (A0-A1)/A0×100 where A1 and A0 are absorbances with and without the sample, respectively.

For data set [2], the target named is rat intestinal α-glucosidase (maltase). As to the kind of experiment: rat intestinal α-glucosidase (maltase) inhibition assay. It is filed as biochemical. The settings on record: rat intestine; compounds, Table 2. As to the method: 1 D and 2 D NMR spectra were recorded on a Bruker 400 AVANCE spectrometer, and the chemical shifts were reported in parts per million (ppm) using tetramethylsilane (TMS) as the internal standard. Melting points were determined on a Fisher-Johns Melting Point apparatus. Adsorbents such as silica gel 60 (Merck) were used for column and radial (chromatotron model 7924 T, Harrison Research) chromatographies. Merck silica gel 60F254 plates were used for TLC. HRESIMS spectra were obtained using a Bruker MICROTOF model mass spectrometer. UV-visible absorption spectra were recorded using a UV-2550 (SHIMADZU) UV-Vis spectrometer (Shimadzu, Kyoto, Japan). α-Glucosidase (EC 3.2.1.20) from Saccharomyces cerevisiae and 4-nitrophenyl-α-D-glucopyranoside (p-NPG) were obtained from Sigma-Aldrich (St. Louis, MO). Acarbose was obtained from Bayer Vitol Leverkusen, Germany. Rat intestinal acetone powder was supplied by Sigma Aldrich.
(§2) Moreover, previous procedure (Damsud et al. [2013]) was also applied to determine inhibitory activity of isolated compounds against intestinal α-glucosidases (maltase and sucrase). Briefly, 10 μL of the test sample and substrate solution (maltose: 10 mM, 20 μL; sucrose: 100 mM, 20 μL, respectively) in 0.1 M phosphate buffer (pH 6.9) were incubated at 37 °C (20 min for maltase and 60 min for sucrase). The mixture was discontinued in boiling water for 10 min, and glucose released from the reaction was converted to quinoneimine using a commercial Glu Kit (Human, Germany). The absorbance of final product was determined at 503 nm, and percent inhibition was calculated using the aforementioned equation.

The target of data set [3] is T2, rat intestinal α-glucosidase (sucrase) (Rattus norvegicus, UniProt P23739).
T2 construct: tissue Sigma Aldrich; host or cells: rat intestinal acetone powder
T2 sequence (P23739 1014-1841 limits assumed): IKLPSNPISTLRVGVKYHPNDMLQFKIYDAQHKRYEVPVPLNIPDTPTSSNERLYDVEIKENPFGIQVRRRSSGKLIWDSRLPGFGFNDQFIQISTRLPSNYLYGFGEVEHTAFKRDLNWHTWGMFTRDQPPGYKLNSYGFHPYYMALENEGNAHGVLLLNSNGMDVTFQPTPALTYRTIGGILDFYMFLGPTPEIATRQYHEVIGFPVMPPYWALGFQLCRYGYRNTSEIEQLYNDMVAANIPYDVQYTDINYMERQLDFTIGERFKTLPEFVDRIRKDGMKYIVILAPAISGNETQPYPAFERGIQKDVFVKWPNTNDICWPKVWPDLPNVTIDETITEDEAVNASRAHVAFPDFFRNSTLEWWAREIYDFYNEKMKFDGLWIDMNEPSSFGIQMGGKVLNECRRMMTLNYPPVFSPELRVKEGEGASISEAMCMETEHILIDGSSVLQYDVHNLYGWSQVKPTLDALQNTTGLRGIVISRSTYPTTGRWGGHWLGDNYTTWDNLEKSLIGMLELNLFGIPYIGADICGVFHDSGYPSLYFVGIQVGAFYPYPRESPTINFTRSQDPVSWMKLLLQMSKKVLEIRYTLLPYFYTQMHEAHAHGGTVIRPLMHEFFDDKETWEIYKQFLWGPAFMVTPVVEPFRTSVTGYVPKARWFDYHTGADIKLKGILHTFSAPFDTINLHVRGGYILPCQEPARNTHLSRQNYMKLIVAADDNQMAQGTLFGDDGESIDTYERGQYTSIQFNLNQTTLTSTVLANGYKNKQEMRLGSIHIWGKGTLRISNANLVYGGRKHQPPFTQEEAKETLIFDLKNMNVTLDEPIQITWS
T2 sequence (P23739 1-1013 partner limits assumed): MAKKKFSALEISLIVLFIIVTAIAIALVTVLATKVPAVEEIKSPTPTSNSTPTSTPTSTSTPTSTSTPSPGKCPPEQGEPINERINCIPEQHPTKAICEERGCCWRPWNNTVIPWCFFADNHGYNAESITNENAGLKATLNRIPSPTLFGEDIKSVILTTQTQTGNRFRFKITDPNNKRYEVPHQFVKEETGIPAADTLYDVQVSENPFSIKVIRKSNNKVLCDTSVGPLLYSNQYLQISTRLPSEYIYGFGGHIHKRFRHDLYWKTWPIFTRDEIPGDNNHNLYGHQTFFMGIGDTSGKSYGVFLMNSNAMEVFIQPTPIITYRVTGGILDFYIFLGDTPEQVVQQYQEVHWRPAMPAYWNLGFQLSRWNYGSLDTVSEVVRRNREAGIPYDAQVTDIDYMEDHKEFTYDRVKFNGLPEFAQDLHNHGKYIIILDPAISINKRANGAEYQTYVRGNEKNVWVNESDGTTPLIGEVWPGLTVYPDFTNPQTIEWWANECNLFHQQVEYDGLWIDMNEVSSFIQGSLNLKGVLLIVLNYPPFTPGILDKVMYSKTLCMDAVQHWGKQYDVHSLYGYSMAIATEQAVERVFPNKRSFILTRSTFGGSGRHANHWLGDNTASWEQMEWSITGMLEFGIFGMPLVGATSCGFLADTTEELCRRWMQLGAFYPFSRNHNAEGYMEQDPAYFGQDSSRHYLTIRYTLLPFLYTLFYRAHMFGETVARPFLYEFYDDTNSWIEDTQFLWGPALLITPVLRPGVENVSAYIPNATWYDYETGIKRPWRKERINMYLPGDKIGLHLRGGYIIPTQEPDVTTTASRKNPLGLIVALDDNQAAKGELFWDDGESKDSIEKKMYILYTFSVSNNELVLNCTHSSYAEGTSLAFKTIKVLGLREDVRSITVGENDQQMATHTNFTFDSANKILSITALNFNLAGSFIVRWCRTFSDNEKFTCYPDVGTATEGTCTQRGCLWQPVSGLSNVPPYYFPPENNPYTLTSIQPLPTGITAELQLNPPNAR
As to the kind of experiment: rat intestinal α-glucosidase (sucrase) inhibition assay. The format is biochemical. The settings on record: rat intestine; compounds, Table 2. The method, then:
as §1, §2

Data set [4] in a line: DPPH radical scavenging activity. The settings on record: compounds, Table 2. As to the method: The antioxidant activity of the extract was evaluated through the free radical scavenging effect on 2,2′-diphenyl-1-picrylhydrazyl (DPPH) (Sigma) radical as previously reported (Yen & Hsieh [1997]) with slight modifications. 100 μL of 0.10 mM DPPH ethanolic solution was added to 20 μL of the sample with various concentrations. The mixture was thoroughly mixed and kept in the dark for 30 min. The absorbance was measured at 517 nm using a Sunrise microplate reader spectrophotometer.

In data set [5] the target is T3, yeast α-glucosidase (Saccharomyces cerevisiae, UniProt P53341).
T3 construct: purchased Sigma-Aldrich (St. Louis, MO)
T3 sequence (P53341 whole entry): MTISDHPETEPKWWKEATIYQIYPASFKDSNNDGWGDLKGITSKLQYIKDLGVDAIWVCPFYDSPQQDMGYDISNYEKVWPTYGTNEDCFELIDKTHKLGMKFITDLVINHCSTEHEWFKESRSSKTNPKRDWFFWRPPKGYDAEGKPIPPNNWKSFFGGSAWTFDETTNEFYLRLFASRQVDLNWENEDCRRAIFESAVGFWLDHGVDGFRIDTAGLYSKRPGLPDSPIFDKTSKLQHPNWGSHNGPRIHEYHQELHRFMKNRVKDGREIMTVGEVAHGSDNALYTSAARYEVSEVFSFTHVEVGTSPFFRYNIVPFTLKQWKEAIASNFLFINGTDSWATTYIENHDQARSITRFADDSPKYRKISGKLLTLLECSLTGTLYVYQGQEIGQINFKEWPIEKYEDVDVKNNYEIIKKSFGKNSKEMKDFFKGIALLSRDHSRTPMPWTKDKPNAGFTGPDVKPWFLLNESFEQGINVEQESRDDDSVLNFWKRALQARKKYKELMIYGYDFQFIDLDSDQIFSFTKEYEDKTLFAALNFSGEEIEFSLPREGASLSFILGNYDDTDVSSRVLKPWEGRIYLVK
As to the kind of experiment: enzyme kinetic study (Lineweaver–Burk plots) against yeast α-glucosidase. The format is biochemical. The text has this: Figure 2S. Lineweaver-Burk plots for inhibitory activity of compound 2 against yeast α- […]
Figure 3S. Secondary plot of slope vs [I] for deduction of Ki of compound 2 against yeast α- […]
Figure 4S. Secondary plot of intercept vs [I] for deduction of K′i of compound 2 against yeast […]
Figure 5S. The hydrophobic analysis of compounds 1 (A) and 2 (B). The H-bond interactions were shown as green dotted lines and the hydrophobic interactions with surrounding amino acids are shown as arcs with spokes radiating towards the inhibitor. These schematic diagrams were generated using LigPlot+ software (Laskowski & Swindells, 2011).
Ahmad FBH, Moghaddam MG, Basri M, Abdul Rahman MB. 2010. Anticancer activity of 3-O-acylated betulinic acid derivatives obtained by enzymatic synthesis. Biosci […]

Where [6] appears, read: compounds, Table 2, read-out: IC50 Baker's yeast α-glucosidase.

Read-outs that look alike come from different tables or passages of the source.

T1 sequence (P53341 whole entry): as above

Turning to `C=C(C)[C@@H]1CC[C@]2(C(=O)O)CC[C@]3(C)[C@H](CC[C@@H]4[C@@]5(C)CC[C@H](O)C(C)(C)[C@@H]5CC[C@]43C)[C@@H]12` [Compound 2, betunilic acid], the IC50 (commonly the midpoint of a concentration-inhibition curve) is 0.0163 ± 0.00203 mM in data set [1] (setting [6]); 0.016 mM in data set [1] (restated in mM in docking section, read-out: experimental IC50 yeast α-glucosidase); more than 3 mM in data set [2]; more than 3 mM in data set [3]; more than 10 mM in data set [4]. Also, the “IC50 DPPH” value in data set [4] is given as “no activity”. Moreover, the mode of inhibition entry in data set [5] (Lineweaver–Burk plots, 0.063 and 1.3 mM of inhibitor) was “mixed mode inhibitor”. The “K'i (uncompetitive component, from intercept plot)” value in data set [5] (secondary plot of intercept vs [I], Figure 4S) was determined as 0.019 mM.
Turning to `C=C(C)[C@@H]1CC[C@]2(C(=O)N(C(=O)NC3CCCCC3)C3CCCCC3)CC[C@]3(C)[C@H](CC[C@@H]4[C@@]5(C)CC[C@H](O)C(C)(C)[C@@H]5CC[C@]43C)[C@@H]12` [Compound 2g], the melting point – broadly, the temperature of the solid-liquid transition – is 193 to 194 °C. Further, in data set [1] (setting [6]), the 50% inhibitory concentration (IC50) came to 0.23 ± 0.00011 mM. Also, the IC50 in data set [2] is more than 3 mM. The compound further showed an IC50 in data set [3] of more than 3 mM. This compound displayed an IC50 in data set [4] of more than 10 mM.

The record behind these values is PMC6130710 (Pharmaceutical Biology, 2017).
